Literature values in patent US10183028B2, “Enrichment method of ergosterol peroxide from sporoderm-broken Ganoderma lucidum spore powder” (Guangzhou Polysarm Bioscience Corp., priority 2015, dated 2019).

Experiments:
Hela cancer cells = conditions: Chinese application 201410311586.3
[1] = tested on: human breast cancer and liver cancer; conditions: Chinese application 200610126091.9
[2] = tested on: malignant breast cancer cells (MT-1); conditions: Chinese application 201210233192.1
[3] = tested on: lymphoma cancer cells (Jurkat); conditions: Chinese application 201210233192.1
brain tumor cells (U87) = conditions: Chinese application 201210233192.1
[4] = tested on: drug-resistant brain tumor stem cells; conditions: Chinese application 201210233192.1
fungal = conditions: Chinese application 200810119948.3
formation of melanin = conditions: Chinese application 01817014.5
pieris rapae = conditions: Chinese application 01817014.5
prodenia litura = conditions: Chinese application 01817014.5
aphid = conditions: Chinese application 01817014.5

## CC(C)[C@@H](C)C=C[C@@H](C)[C@H]1CC[C@@H]2[C@]1(C)CC[C@H]1[C@]23C=C[C@]2(C[C@@H](O)CC[C@]12C)OO3 [Ergosterol peroxide, 5α,8α-Epidioxyergosta-6,22-dien-3β-ol]
Hela cancer cells
  synergy with taxol in killing or damaging Hela cancer cells: synergy with taxol
[1]
  harmful effects on immune organs and weight: no harmful effects
[1]; human breast cancer and liver cancer
  anti-tumor pharmacological activity: significant anti-tumor
[2]
  inhibitory effect on malignant breast cancer cells (MT-1): significant inhibitory effect
[3]
  inhibitory effect on lymphoma cancer cells (Jurkat): significant inhibitory effect
Brain tumor cells (U87)
  inhibitory effect on brain tumor cells (U87): significant inhibitory effect
[4]
  killing of drug-resistant brain tumor stem cells: kills
fungal
  antifungal bioactivity: remarkable antifungal bioactivity
Formation of melanin
  inhibitory effects on the formation of melanin: strong inhibitory effects
Pieris rapae
  poisoning effects on agricultural pests: poisoning effects
Prodenia litura
  poisoning effects on agricultural pests: poisoning effects
aphid
  poisoning effects on agricultural pests: poisoning effects
